# Assay results from ChEMBL document CHEMBL1201862, “PubChem BioAssay data set” (2004).
#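 How tested: cells in 96-well plates exposed to compound for 48 hours at five concentrations. GI50 marks 50% less growth.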 The source made the active and inactive calls. No stated cut-off is given here; in the data, active = GI50 up to about 1.1 µM and inactive = higher.
# Key:
# Test in all cases: NCI tumour cell line growth inhibition, 48 h
# A498 = system: A498
# CCRF-CEM = system: CCRF-CEM
# DLD-1 = system: DLD-1
# HCT-116 = system: HCT-116
# HOP-92 = system: HOP-92
# M14 = system: M14
# NCI-H460 = system: NCI-H460
# OVCAR-4 = system: OVCAR-4
# OVCAR-5 = system: OVCAR-5
# OVCAR-8 = system: OVCAR-8
# SN12C = system: SN12C
# SR = system: SR
# U-251 = system: U-251
# COLO 205 = system: COLO 205
# LOX IMVI = system: LOX IMVI
# OVCAR-3 = system: OVCAR-3
# MCF7 = system: MCF7
# NCI/ADR-RES = system: NCI/ADR-RES
# PC-3 = system: PC-3
# T47D = system: T47D
SMILES,GI50 (A498),GI50 (CCRF-CEM),GI50 (DLD-1),GI50 (HCT-116),GI50 (HOP-92),GI50 (M14),GI50 (NCI-H460),GI50 (OVCAR-4),GI50 (OVCAR-5),GI50 (OVCAR-8),GI50 (SN12C),GI50 (SR),GI50 (U-251),GI50 (COLO 205),GI50 (LOX IMVI),GI50 (OVCAR-3),GI50 (MCF7),GI50 (NCI/ADR-RES),GI50 (PC-3),GI50 (T47D)
C/N=C(\NC(=S)N(C)C)N(C)C,> 100 µM (inactive),> 100 µM (inactive),> 100 µM (inactive),> 100 µM (inactive),> 100 µM (inactive),> 100 µM (inactive),> 100 µM (inactive),> 100 µM (inactive),> 100 µM (inactive),> 100 µM (inactive),> 100 µM (inactive),> 100 µM (inactive),> 100 µM (inactive),,,,,,,
C/C(CN1C(=O)c2ccccc2C1=O)=N\NS(=O)(=O)c1ccc2ccccc2c1,> 100 µM (inactive),> 100 µM (inactive),> 100 µM (inactive),> 100 µM (inactive),,> 100 µM (inactive),> 100 µM (inactive),> 100 µM (inactive),> 100 µM (inactive),> 100 µM (inactive),> 100 µM (inactive),> 100 µM (inactive),> 100 µM (inactive),> 100 µM (inactive),> 100 µM (inactive),> 100 µM (inactive),,,,
COc1ccc(/C=C/c2onc3c(=O)n(C)nc(-c4ccccc4)c23)cc1,,> 100 µM (inactive),> 100 µM (inactive),> 100 µM (inactive),7.26 µM (inactive),> 100 µM (inactive),> 100 µM (inactive),,,> 100 µM (inactive),> 100 µM (inactive),,> 100 µM (inactive),> 100 µM (inactive),> 100 µM (inactive),,,,,
CN1CCC(c2c(O)cc(O)c3c(=O)cc(-c4ccccc4Cl)oc23)C(O)C1 (stereo unspecified),0.117 µM (active),0.0271 µM (active),0.0368 µM (active),< 0.01 µM (active),0.0194 µM (active),0.111 µM (active),0.0592 µM (active),0.124 µM (active),0.128 µM (active),0.0352 µM (active),0.143 µM (active),0.0247 µM (active),0.0615 µM (active),0.0811 µM (active),0.0173 µM (active),,,,,
O=C1/C(=C/c2ccc(C(=O)O)cc2)CNC/C1=C\c1ccc(C(=O)O)cc1,> 100 µM (inactive),> 100 µM (inactive),> 100 µM (inactive),> 100 µM (inactive),> 100 µM (inactive),> 100 µM (inactive),> 100 µM (inactive),> 100 µM (inactive),> 100 µM (inactive),> 100 µM (inactive),> 100 µM (inactive),> 100 µM (inactive),> 100 µM (inactive),> 100 µM (inactive),,> 100 µM (inactive),,,,
COC1=CC(=O)C2C(C1=O)C(c1ccc(OC)c(OC)c1)[C@H]2C (stereo partly specified),> 100 µM (inactive),22.6 µM (inactive),17.1 µM (inactive),18 µM (inactive),20 µM (inactive),19 µM (inactive),> 100 µM (inactive),16.6 µM (inactive),> 100 µM (inactive),20.6 µM (inactive),,,> 100 µM (inactive),19.1 µM (inactive),22.9 µM (inactive),19.6 µM (inactive),,,,
COC(C/C(=C/CO[Si](C(C)C)(C(C)C)C(C)C)C(=O)N(C(=O)OC(C)(C)C)c1ccccc1I)OC,> 100 µM (inactive),> 10 µM (inactive),,11.8 µM (inactive),2.16 µM (inactive),47.2 µM (inactive),31.8 µM (inactive),44.6 µM (inactive),36.1 µM (inactive),> 100 µM (inactive),52 µM (inactive),34.4 µM (inactive),37.6 µM (inactive),67.5 µM (inactive),18.2 µM (inactive),29.2 µM (inactive),18.7 µM (inactive),> 100 µM (inactive),23.6 µM (inactive),36.8 µM (inactive)
COc1cc(Cl)cc(O)c(=O)c1OC,57.1 µM (inactive),12.7 µM (inactive),37.3 µM (inactive),35.8 µM (inactive),,41.8 µM (inactive),24.3 µM (inactive),25.7 µM (inactive),> 92.5 µM (inactive),36.9 µM (inactive),46 µM (inactive),2.2 µM (inactive),40.1 µM (inactive),28.7 µM (inactive),26.1 µM (inactive),20.1 µM (inactive),,,,
O=C1c2ccccc2C2(O)Nc3cc(O)ccc3C12O (stereo unspecified),> 100 µM (inactive),> 100 µM (inactive),> 100 µM (inactive),> 100 µM (inactive),> 100 µM (inactive),> 100 µM (inactive),> 100 µM (inactive),> 100 µM (inactive),> 100 µM (inactive),> 100 µM (inactive),> 100 µM (inactive),,> 100 µM (inactive),> 100 µM (inactive),> 100 µM (inactive),> 100 µM (inactive),,,,
CCCCCCCCCCCC[N+]12CC[N+](CCN)(CC1)CC2,,73.6 µM (inactive),82.8 µM (inactive),> 100 µM (inactive),29.4 µM (inactive),> 100 µM (inactive),29.2 µM (inactive),> 100 µM (inactive),17.2 µM (inactive),> 100 µM (inactive),76.7 µM (inactive),26.9 µM (inactive),34.5 µM (inactive),39.3 µM (inactive),37.8 µM (inactive),> 100 µM (inactive),,,,
NCCCCCS(=O)(=O)O,> 100 µM (inactive),> 100 µM (inactive),> 100 µM (inactive),> 100 µM (inactive),,> 100 µM (inactive),> 100 µM (inactive),> 100 µM (inactive),> 100 µM (inactive),> 100 µM (inactive),> 100 µM (inactive),> 100 µM (inactive),> 100 µM (inactive),> 100 µM (inactive),> 100 µM (inactive),> 100 µM (inactive),,,,
COc1ccc(CNc2nc3cc(C(F)(F)F)ccc3nc2C(=O)O)cc1OC,27.5 µM (inactive),18.4 µM (inactive),,29 µM (inactive),27.2 µM (inactive),32 µM (inactive),36.6 µM (inactive),48.2 µM (inactive),46 µM (inactive),42.6 µM (inactive),26.8 µM (inactive),23.9 µM (inactive),24.3 µM (inactive),22.5 µM (inactive),33.7 µM (inactive),22.3 µM (inactive),23.2 µM (inactive),34 µM (inactive),27.5 µM (inactive),37.8 µM (inactive)
C1=CC=C2NCCCCCCC/N=C3/C=CC=CC=C3NCCCCCCC/N=C\2C=C1,,36.8 µM (inactive),49.4 µM (inactive),39.1 µM (inactive),33.9 µM (inactive),10 µM (inactive),25.4 µM (inactive),64.3 µM (inactive),> 100 µM (inactive),40.1 µM (inactive),> 100 µM (inactive),63.5 µM (inactive),10 µM (inactive),> 100 µM (inactive),54.2 µM (inactive),10 µM (inactive),,,,
